Data taken from US20160039897A1, “COMPOUNDS AND METHODS FOR TREATING OBESITY AND CONTROLLING WEIGHT” (THE UNIVERSITY OF NORTH CAROLINA AT CHAPEL HILL, priority 2013, published 2016).

How the values were obtained:
Type in all cases: in vivo, mouse
[1] = tested on: IGFBP-2−/− mice; assay: Body weight gain and food intake, 12 weeks of peptide treatment; settings: pegylated peptide 50 μg IP 3 times/week; for body weight gain (in words): HBD peptides after 8 weeks vs control peptide, control peptide over 12 weeks vs wild type
Procedure: Generation of the B6.129-Igfbp2^tmlJep, referred to as Igfbp2^−/− mice, has been described previously (DeMambro et al., 2008; Danno et al., 1992). The mice were backcrossed onto C57BL/6J background for at least 10 generations. Mating pairs were provided from Maine Medical Center Research Institute (Scarborough, Me.). Igfbp2^+/+ mice were C57BL/6J controls. All in vivo and ex vivo experimental studies were performed using male mice. The animal study protocol was reviewed and approved by the Institutional Animal Care and Use Committee of University of North Carolina at Chapel Hill. Mice were assigned to one of four treatment groups. 1) Peg HBD1 peptide: Igfbp2^−/− mice were administered 50 μg of the pegylated HBD1 peptide in 0.1 mL PBS (n=9); 2) Peg HBD2 peptide: Igfbp2^−/− mice were administered 50 μg of the pegylated HBD2 peptide in 0.1 mL PBS (n=10); 3) control peptide: Igfbp2^−/− mice were given 50 μg of the HBD1 control peptide in 0.1 mL PBS (n=18); 4) WT: Igfbp2^+/+ mice were given 0.1 mL of PBS (n=9). All injections were administered IP 3 times weekly from 10-22 weeks of age. All mice were provided with free access to 2018 Teklad global rodent diet (Harlan, Dublin, Va.), containing 18.6% protein, 6.2% fat and 3.5% crude fiber. Food consumption and the weights of the mice were determined weekly.
To investigate the effect of IGFBP-2 HBDs on weight gain and fat mass in vivo, the peptides containing HBD sequences were administered to IGFBP-2−/− mice. […] To extend the half life of the peptides and increase their resistance to proteolysis in vivo, all three peptides were pegylated. It has been shown that 50 μg of HBD1 peptide administered via intraperitoneal (IP) injection 5 times per week for 3 weeks was effective in promoting bone growth in IGFBP-2^−/− male mice (17). […] In the second phase the effects of the HBD2 and control peptides were determined. […] To exclude the possibility that differences in weight gain were caused by different food intake, food consumption was measured weekly.
Mice. […] Food consumption and the weights of the mice were determined weekly. […]

[2] = tested on: IGFBP-2−/− mice; assay: Body composition (fat and lean mass) by EchoMRI at weeks 0 and 12
Procedure: (§1) Body fat and lean muscle mass was measured at weeks 0 and 12 of treatment by magnetic resonance imaging analysis (EchoMRI-100, Echo Medical Systems, Houston, Tex.), a technique that measures fat mass and lean mass in unanesthetized animals (Kelly S A, et. al., 2010). After completion of 12 weeks of treatment, the mice were sacrificed. Blood was collected by cardiac puncture and allowed to sit for 4 hours before centrifuging at 3500 rpm×15 min. The serum was aspirated and stored at −20° C. until analysis. Abdominal inguinal and visceral fat pads were carefully dissected from each animal according to defined anatomical landmarks. All subcutaneous fat between the lower part of the rib cage and the upper thigh was considered abdominal subcutaneous inguinal fat, whereas all fat found along the mesentery starting at the lesser curvature of the stomach and ending at the sigmoid colon was considered visceral fat. Fat depots were blotted dry prior to weighing. The right inguinal fat pad was dissected separately and the triglyceride content of this tissue was determined by a colorimetric analysis (Pointe Scientific, Canton, Mich.), as previously described (Dann H, Kimura S 1992). Serum adiponectin and leptin were measured by ELISA following manufacturer's instructions (Millipore, Billerica, Mass.).
(§2) Body composition and serum adipokine measurement. Body fat and lean mass were measured at weeks 0 and 12 of treatment by magnetic resonance imaging analysis (EchoMRI-100, Echo Medical Systems, Houston, Tex.), using unanesthetized animals. After 12 weeks of treatment, the mice were sacrificed and blood was collected by cardiac puncture and centrifuged at 3500 rpm×15 min. The serum was stored at −20° C. Abdominal inguinal and visceral fat pads were dissected from each animal according to defined anatomical landmarks. Subcutaneous fat between the rib cage and the upper thigh was termed subcutaneous inguinal fat, whereas all fat from the lesser curvature of the stomach to the sigmoid colon was termed visceral fat. Fat depots were blotted dry prior to weighing. The right inguinal fat pad was dissected separately and the triglyceride content of this tissue was determined by a calorimetric analysis (Pointe Scientific, Canton, Mich. Serum adiponectin and leptin were measured by ELISA following manufacturer's instructions (Millipore, Billerica, Mass.).

[3] = tested on: IGFBP-2−/− mice; assay: Inguinal and visceral fat pad, liver and heart weights at sacrifice; settings: after 12 weeks; for Inguinal fat / Visceral fat: pegylated peptide 50 μg IP 3 times/week, mean±SE
Procedure: as §1, §2

[4] = tested on: IGFBP-2−/− mice; assay: Triglyceride content of right inguinal fat pad (colorimetric); settings: after 12 weeks; vs control peptide
Procedure: as §1, with “All subcutaneous fat between the lower part of the rib cage and the upper thigh was considered abdominal subcutaneous inguinal fat, whereas all fat found along the mesentery starting at the lesser curvature of the stomach and ending at the sigmoid colon was considered visceral fat. Fat depots were blotted dry prior to weighing.” left out
Body composition and serum adipokine measurement. Body fat and lean mass were measured at weeks 0 and 12 of treatment by magnetic resonance imaging analysis (EchoMRI-100, Echo Medical Systems, Houston, Tex.), using unanesthetized animals. […]

[5] = tested on: IGFBP-2−/− mice; assay: Serum adiponectin and leptin by ELISA; settings: after 12 weeks
Procedure: as §1, §2

[6] = weeks 0 to 12, pegylated peptide 50 μg IP 3 times/week
[7] = weeks 0 to 12, pegylated peptide 50 μg IP 3 times/week, mean±SE

| Sequence | body weight gain (in words) [1] | inhibition of fat mass acquisition ([2]; 12 weeks) [%] | lean mass change expressed as percentage of body weight (relative reduction) [2, 6] [%] | reduction of inguinal fat pad (percentage of body weight) compared to control peptide [3] | reduction of visceral fat (percentage of body weight) compared to control peptide [3] [%] | Inguinal fat [3] | Visceral fat [3] [g] | reduction of triglyceride content in the inguinal fat pad [4] [%] | increase of serum leptin level compared to control peptide treated mice [5] | weight gain compared to mice that received HBD1 peptide ([1]; after 10 weeks) | reduction in body fat mass gain (fat as percentage of body weight) compared to control peptide ([2]; 12 weeks, pegylated peptide 50 μg IP 3 times/week) [%] | Fat mass increase [2, 7] [g] | Lean mass increase [2, 7] [g] | serum adiponectin level lower than in control peptide treated mice [5] [%] | serum adiponectin level reduction compared to HBD1 peptide treated mice [5] [%] |
| --- | --- | --- | --- | --- | --- | --- | --- | --- | --- | --- | --- | --- | --- | --- | --- |
| KHLSLEEPKKLRP [HBD1 peptide] | gained significantly less weight | 31 | 4.1±1.1 | had no effect | 24±5 | had no effect | 0.34 ± 0.01 | 22±2 | had no effect |  |  |  |  |  |  |
| KHGLYNLKQCKMSLNGQR [HBD2 peptide] | gained significantly less weight |  | 2.1±0.8 | 32±7% | 44±7 | 0.23 ± 0.02 g | 0.25 ± 0.02 | 37±9 | 57±9% | significantly less | 48±9 | 0.58 ± 0.12 | 3.10 ± 0.57 | 36±4 | 24±5 |
